Experimental data as given in patent publication US12583861B2, “Derivatives of imidazo[4,5-d]pyridazine, their preparation and their therapeutic application” (SANOFI, priority 2021, dated 2026).
Where a name gives a salt, the structure may show the parent alone.

How the values were obtained:
human TLR8 = biological target: T1, human TLR8 (Homo sapiens, UniProt Q9NR97); experiment: HEK-Blue hTLR8 reporter cell assay (SEAP, NF-kB/AP-1) for stimulation of human TLR8; format: cell-based; conditions: HEK-Blue hTLR8 cells; for EC50: 24 h incubation, SEAP readout, read-out: TLR8_EC50
T1 construct: host or cells: HEK293 (HEK-Blue hTLR8)
T1 sequence (Q9NR97 27-1041): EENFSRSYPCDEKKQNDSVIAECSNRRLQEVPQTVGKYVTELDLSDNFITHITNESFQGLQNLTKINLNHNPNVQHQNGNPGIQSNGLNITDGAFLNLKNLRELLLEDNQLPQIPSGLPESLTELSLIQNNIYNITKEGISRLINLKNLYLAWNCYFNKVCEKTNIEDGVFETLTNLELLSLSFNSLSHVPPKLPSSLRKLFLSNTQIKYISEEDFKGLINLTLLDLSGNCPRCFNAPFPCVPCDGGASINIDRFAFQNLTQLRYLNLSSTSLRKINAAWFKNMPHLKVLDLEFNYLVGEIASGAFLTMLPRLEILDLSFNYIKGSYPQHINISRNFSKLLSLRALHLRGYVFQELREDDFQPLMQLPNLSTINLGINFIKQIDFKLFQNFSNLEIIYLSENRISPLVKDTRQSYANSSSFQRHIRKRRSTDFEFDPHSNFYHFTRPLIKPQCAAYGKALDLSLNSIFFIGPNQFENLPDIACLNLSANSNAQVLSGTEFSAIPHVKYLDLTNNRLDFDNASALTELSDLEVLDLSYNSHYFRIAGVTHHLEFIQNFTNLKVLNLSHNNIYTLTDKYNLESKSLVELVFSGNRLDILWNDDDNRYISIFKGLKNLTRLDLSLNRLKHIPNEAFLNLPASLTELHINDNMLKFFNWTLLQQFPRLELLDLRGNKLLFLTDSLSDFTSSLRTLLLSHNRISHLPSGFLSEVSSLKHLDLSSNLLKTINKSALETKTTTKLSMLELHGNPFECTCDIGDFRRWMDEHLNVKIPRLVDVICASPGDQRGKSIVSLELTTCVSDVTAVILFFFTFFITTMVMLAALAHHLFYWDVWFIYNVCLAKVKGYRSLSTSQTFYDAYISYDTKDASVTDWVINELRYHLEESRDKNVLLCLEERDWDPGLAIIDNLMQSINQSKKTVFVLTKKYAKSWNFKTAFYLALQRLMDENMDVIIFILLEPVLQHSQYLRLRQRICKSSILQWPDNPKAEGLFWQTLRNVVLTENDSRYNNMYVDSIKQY
How it was run: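 Stimulation is quantified as secreted alkaline phosphatase in supernatant using QUANTI-Blue™ substrate. Reporter HEK293 line co-transfected with hTLR8 and SEAP under an IFN-β minimal promoter with five NF-κB/AP-1 sites; 3.10E4 cells/well, 18 to 24 h pre-culture at 37° C. before compounds.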

human TLR7 = biological target: T2, human TLR7 (Homo sapiens, UniProt Q9NYK1); experiment: HEK-Blue hTLR7 reporter cell assay (SEAP, NF-kB/AP-1) for stimulation of human TLR7; format: cell-based; conditions: HEK-Blue hTLR7 cells; for EC50: 24 h incubation, SEAP readout, read-out: TLR7_EC50
T2 construct: host or cells: HEK293 (HEK-Blue hTLR7)
T2 sequence (Q9NYK1 27-1049): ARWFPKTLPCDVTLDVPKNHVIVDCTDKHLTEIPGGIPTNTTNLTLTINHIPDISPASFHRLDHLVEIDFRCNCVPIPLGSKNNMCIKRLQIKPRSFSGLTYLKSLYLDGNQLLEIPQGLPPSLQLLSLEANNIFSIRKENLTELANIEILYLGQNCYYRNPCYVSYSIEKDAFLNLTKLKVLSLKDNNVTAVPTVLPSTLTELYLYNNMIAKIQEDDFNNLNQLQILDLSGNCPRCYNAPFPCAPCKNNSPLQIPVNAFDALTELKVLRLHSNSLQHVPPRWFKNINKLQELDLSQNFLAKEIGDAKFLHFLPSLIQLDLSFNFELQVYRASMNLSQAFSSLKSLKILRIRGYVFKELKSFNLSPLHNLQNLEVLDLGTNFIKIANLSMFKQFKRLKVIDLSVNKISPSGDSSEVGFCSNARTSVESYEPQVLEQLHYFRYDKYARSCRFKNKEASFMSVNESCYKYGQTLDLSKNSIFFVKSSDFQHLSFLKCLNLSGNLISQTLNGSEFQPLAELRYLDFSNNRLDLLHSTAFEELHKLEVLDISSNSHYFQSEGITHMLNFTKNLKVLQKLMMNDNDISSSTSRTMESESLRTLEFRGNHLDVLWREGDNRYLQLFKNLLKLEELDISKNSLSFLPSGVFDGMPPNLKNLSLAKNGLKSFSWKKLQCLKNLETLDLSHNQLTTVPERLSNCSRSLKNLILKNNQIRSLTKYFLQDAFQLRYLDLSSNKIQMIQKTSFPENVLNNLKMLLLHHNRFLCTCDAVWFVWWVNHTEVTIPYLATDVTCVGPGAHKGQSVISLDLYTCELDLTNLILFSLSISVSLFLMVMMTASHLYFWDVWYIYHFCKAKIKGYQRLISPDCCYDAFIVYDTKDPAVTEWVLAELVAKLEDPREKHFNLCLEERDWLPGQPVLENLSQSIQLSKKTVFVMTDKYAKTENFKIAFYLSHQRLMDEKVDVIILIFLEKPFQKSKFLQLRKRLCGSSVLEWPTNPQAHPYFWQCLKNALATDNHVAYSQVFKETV
How it was run: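 Activity expressed as EC50 for half-maximal SEAP induction. Compounds, serially diluted 3-fold from 20 to 0.01 μM, were incubated 24 h at 37 °C, 5% CO2 with HEK-Blue hTLR7 reporter cells (3.10E4/well, plated 18–24 h earlier); supernatant developed with QUANTI-Blue.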

Compound	EC50 (human TLR8)	EC50 (human TLR7)	activation at 20 µM (human TLR8; 24 h, at 20000 nM)	activation at 20 µM (human TLR7; 24 h, at 20000 nM)
CCCCc1nc2c(N)nnc(OC(C)C)c2n1C[C@H]1CCC[C@H](N)C1 (racemic) [Compound 32, 1-(((1S,3S)-3-aminocyclohexyl)methyl)-2-butyl-7-isopropoxy-1H-imidazo[4,5-]pyridazin-4-amine]	709 nM	598 nM		
CCCCc1nc2c(N)nnc(OC(C)C)c2n1CC(C)(CO)CO [Compound 156, 2-[(7-amino-2-butyl-4-isopropoxy-imidazo[4,5-d]pyridazin-3-yl)methyl]-2-methyl-propane-1,3-diol; hydrochloride]	5 nM	75 nM		
CCCCOc1nnc(N)c2nc(CCCC)n(Cc3ccc(OC)cc3)c12 [Compound 8, 7-butoxy-2-butyl-1-(4-methoxybenzyl)-1H-imidazo[4,5-d]pyridazin-4-amine]	> 20000 nM	168 nM		
CCCCc1nc2c(N)nnc(OC(C)C)c2n1CCN1CCNCC1 [Compound 79, 2-butyl-7-isopropoxy-1-(2-(piperazin-1-yl)ethyl)-1H-imidazo[4,5-d]pyridazin-4-amine]	> 20000 nM	9710 nM		
CCCCCCCCCCNCc1ccc(Cn2c(CCCC)nc3c(N)nnc(OC(C)C)c32)cc1 [Compound 110, 2-butyl-1-(4-((decylamino)methyl)benzyl)-7-isopropoxy-1H-imidazo[4,5-d]pyridazin-4-amine]	2850 nM	734 nM		
CCCCc1nc2c(N)nnc(-c3cc[nH]c3)c2n1C[C@H]1CC[C@H](N)CC1 [Compound 141, 1-(((1R,4R)-4-aminocyclohexyl)methyl)-2-butyl-7-(1H-pyrrol-3-yl)-1H-imidazo[4,5-d]pyridazin-4-amine]			19.6%	26.8%
CCCCc1nc2c(N)nnc(OC(C)C)c2n1CC(CO)CO [Compound 157, 2-[(7-amino-2-butyl-4-isopropoxy-imidazo[4,5-d]pyridazin-3-yl)methyl]propane-1,3-diol; hydrochloride]	7 nM	531 nM		
CCCCc1nc2c(N)nnc(OC(C)C)c2n1Cc1ccc(CNCCOCCOCCOCCOCCOCCOCCOCCOC)cc1 [Compound 122, 2-butyl-4-isopropoxy-3-[[4-[[2-[2-[2-[2-[2-[2-[2-(2-methoxyethoxy)ethoxy]ethoxy]ethoxy]ethoxy]ethoxy]ethoxy]ethylamino]methyl]phenyl]methyl]imidazo[4,5-d]pyridazin-7-amine di2,2,2-trifluoroacetate]	> 20000 nM	729 nM		
CCCCc1nc2c(N)nnc(Oc3ccccc3)c2n1Cc1ccc(OC)cc1 [Compound 72, 2-butyl-1-(4-methoxybenzyl)-7-phenoxy-1H-imidazo[4,5-d]pyridazin-4-amine]	> 20000 nM	3760 nM		
CCCCc1nc2c(N)nnc(OC(C)C)c2n1CCCCCN [Compound 77, 1-(5-aminopentyl)-2-butyl-7-isopropoxy-1H-imidazo[4,5-d]pyridazin-4-amine]	> 20000 nM	390 nM		

Continued, values first:

EC50 (human TLR8)	EC50 (human TLR7)	activation at 20 µM (human TLR8; 24 h, at 20000 nM)	activation at 20 µM (human TLR7; 24 h, at 20000 nM)	Compound
4070 nM	6140 nM			CCCCc1nc2c(N)nnc(N(C)Cc3ccc(CN)cc3)c2n1C [Compound 46, N7-(4-(aminomethyl)benzyl)-2-butyl-N7,1-dimethyl-1H-imidazo[4,5-d]pyridazine-4,7-diamine]
> 20000 nM	4000 nM			CCCCc1nc2c(N)nnc(-c3cccn3C)c2n1Cc1ccc(OC)cc1 [Compound 70, 2-butyl-1-(4-methoxybenzyl)-7-(1-methyl-1H-pyrrol-2-yl)-1H-imidazo[4,5-d]pyridazin-4-amine hydrochloride]
> 20000 nM	345 nM			CCCCc1nc2c(N)nnc(CCC(C)C)c2n1Cc1ccc(OC)cc1 [Compound 13, 2-butyl-7-isopentyl-1-(4-methoxybenzyl)-1H-imidazo[4,5-d]pyridazin-4-amine]
252 nM	136 nM			CCCCc1nc2c(N)nnc(-c3cc[nH]c3)c2n1Cc1ccc(CN)cc1 [Compound 135, 1-(4-(aminomethyl)benzyl)-2-butyl-7-(1H-pyrrol-3-yl)-1H-imidazo[4,5-d]pyridazin-4-amine 2,2,2-trifluoroacetate]
> 20000 nM	1180 nM			CCCCc1nc2c(N)nnc(-c3cccs3)c2n1Cc1ccc(OC)cc1 [Compound 63, 2-butyl-1-(4-methoxybenzyl)-7-(thiophen-2-yl)-1H-imidazo[4,5-d]pyridazin-4-amine]
> 20000 nM	161 nM			CCCCC(=O)NCc1ccc(Cn2c(CCCC)nc3c(N)nnc(OC(C)C)c32)cc1 [Compound 30, N-(4-((4-amino-2-butyl-7-isopropoxy-1H-imidazo[4,5-d]pyridazin-1-yl)methyl)benzyl)pentanamide]
> 20000 nM	205 nM			CCCCc1nc2c(N)nnc(OC(C)C)c2n1Cc1ccc(CNC(=O)CCOC)cc1 [Compound 107, N-(4-((4-amino-2-butyl-7-isopropoxy-1H-imidazo[4,5-d]pyridazin-1-yl)methyl)benzyl)-3-methoxypropanamide]
> 20000 nM	11000 nM			CCCCc1nc2c(N)nnc(N3CCCC3)c2n1C[C@H]1CC[C@H](N)CC1 [Compound 143, 3-[(4-aminocyclohexyl)methyl]-2-butyl-4-pyrrolidin-1-yl-imidazo[4,5-d]pyridazin-7-amine]
> 20000 nM	274 nM			CCCCc1nc2c(N)nnc(N3CCCC3)c2n1Cc1ccc(CN)cc1 [Compound 134, 1-(4-(aminomethyl)benzyl)-2-butyl-7-(pyrrolidin-1-yl)-1H-imidazo[4,5-d]pyridazin-4-amine]
> 20000 nM	317 nM			CCCCc1nc2c(N)nnc(OC(C)C)c2n1Cc1ccc(CNC2CS(=O)(=O)C2)cc1 [Compound 37, 3-((4-((4-amino-2-butyl-7-isopropoxy-1H-imidazo[4,5-d]pyridazin-yl)methyl)benzyl)amino)thietane 1,1-dioxide]
> 20000 nM	145 nM			CCCCc1nc2c(N)nnc(OCCC)c2n1Cc1ccc(OC)cc1 [Compound 5, 2-butyl-1-(4-methoxybenzyl)-7-propoxy-1H-imidazo[4,5-d]pyridazin-4-amine]
> 20000 nM	247 nM			CCOCc1nc2c(N)nnc(OC(C)C)c2n1Cc1ccc(CN)cc1 [Compound 159, 1-(4-(aminomethyl)benzyl)-2-(ethoxymethyl)-7-isopropoxy-1H-imidazo[4,5-d]pyridazin-4-amine]
